Each structure is given as a SMILES string.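 All cell lines were grown in 96-well plates and treated with compound for 48 hours. At the GI50, growth is halved.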 Activity calls are given as the source filed them. Rule as the data show it: active = GI50 up to about 1.1 µM and inactive = higher.

Common to all, as to test: NCI tumour cell line growth inhibition, 48 h
The subject of assay [1] is ACHN.
Assay [2] relates to CAKI-1.
Assay [3] concerns COLO 205.
Assay [4] relates to HCT-15.
Assay [5] relates to HOP-92.
Assay [6] has as its system HT-29.
The subject of assay [7] is KM12.
Assay [8] has as its system M14.
Assay [9] deals with MDA-MB-435.
Assay [10] has as its system NCI-H23.
Assay [11] has as its system OVCAR-4.
Assay [12] has as its system RPMI-8226.
Assay [13] has as its system RXF 393.
Assay [14] has as its system SF-268.
Assay [15] deals with SF-539.
Assay [16] concerns SK-MEL-2.
The subject of assay [17] is SW-620.
Assay [18] relates to HOP-62.
For assay [19], the system named is NCI-H226.

`CCN(CC)/N=C\c1c2ccccc2cc2ccccc12`: the GI50 is 96.8 µM (inactive) in assay [1]; 33 µM (inactive) in assay [2]; 23.5 µM (inactive) in assay [3]; 34.6 µM in assay [4]; 24.4 µM (inactive) in assay [5]; 25 µM (inactive) in [6]. Besides, the GI50 was 30.8 µM (inactive) in assay [7]; 22 µM (inactive) in assay [8]; 34.7 µM (inactive) in assay [9]; 58.9 µM (inactive) in [10]; 54.3 µM (inactive) in assay [11]; 30.5 µM (inactive) in [12]. In addition, the GI50 in assay [13] was 17.7 µM (inactive); in assay [14], 72.8 µM (inactive); in [15], > 100 µM (inactive); in assay [16], 27.9 µM (inactive); in [17], 29 µM (inactive).

As to `CC1=C/C(=N\OCC(=O)O)CC(c2ccc(C(C)C)cc2)C1` (stereo not drawn), the GI50 in assay [2] is > 100 µM (inactive); in assay [3], 76.7 µM (inactive); in [4], 23.2 µM; in [5], 29.5 µM (inactive); in [6] it was 16.6 µM (inactive); in assay [7], 48.5 µM (inactive). In addition, the GI50 in [8] was 35.2 µM (inactive); in assay [9], 36.8 µM (inactive); in [12] it was 23.2 µM (inactive); in assay [13] it was > 100 µM (inactive); in assay [15], 93.1 µM (inactive); in [16], 99.1 µM (inactive). Besides, the GI50 in assay [17] is 34.3 µM (inactive).

As for `CC(NC(=O)C(CC(=O)OCc1ccccc1)NC(=O)OCc1ccccc1)c1ccccc1` (stereo not drawn), the GI50 was 67.5 µM (inactive) in assay [1]; 83.4 µM (inactive) in [2]; > 100 µM (inactive) in [3]; above 100 µM in assay [4]; 49.2 µM (inactive) in assay [18]; > 100 µM (inactive) in assay [6]. For the same compound, the GI50 in assay [7] is > 100 µM (inactive); in assay [8], 27.7 µM (inactive); in assay [9] it was > 100 µM (inactive); in assay [19], 43.5 µM (inactive); in [10] it was > 100 µM (inactive); in assay [12] it was > 100 µM (inactive). Moreover, the GI50 in [13] is 19.2 µM (inactive); in assay [14], > 100 µM (inactive); in [15] it was 64.3 µM (inactive); in assay [16], > 100 µM (inactive); in [17], > 100 µM (inactive).

`N#CC(C#N)=C1c2ccccc2C(=NN)c2ccccc21`: the GI50 in assay [1] was 12.3 µM (inactive); in [2], > 25.7 µM (inactive); in [3], > 100 µM (inactive); in [4], above 100 µM; in assay [18], 10.6 µM (inactive); in [5] it was > 100 µM (inactive). For the same compound, the GI50 in assay [6] is > 100 µM (inactive); in assay [7], > 100 µM (inactive); in assay [8] it was 88.1 µM (inactive); in assay [9], > 100 µM (inactive); in assay [19] it was > 100 µM (inactive); in assay [12], > 100 µM (inactive). Besides, the GI50 in [13] was 27.5 µM (inactive); in assay [14] it was > 61.4 µM (inactive); in [15] it was > 56.1 µM (inactive); in assay [16], > 100 µM (inactive); in assay [17], > 100 µM (inactive).

For the compound `COP(=O)(Cc1ccc(/C=C/C#N)o1)OC`, the GI50 in [3] was > 100 µM (inactive); in assay [4], above 100 µM; in assay [18], > 100 µM (inactive); in assay [5], > 100 µM (inactive); in assay [6], > 100 µM (inactive); in assay [7], > 100 µM (inactive). Further, the GI50 in assay [8], in assay [9], in [19], in [10], in assay [11] and in assay [12] was > 100 µM (inactive) in each case. Also, the GI50 in assay [13] is > 100 µM (inactive); in assay [14] it was > 100 µM (inactive); in [15], > 100 µM (inactive); in assay [17], > 10 µM (inactive).

`C1=N\c2ccc(cc2)/N=C\c2ccc(cc2)OCc2cccc(n2)COc2ccc/1cc2`: the GI50 in assay [1] is > 100 µM (inactive); in assay [2], > 100 µM (inactive); in [3], > 100 µM (inactive); in assay [4], above 100 µM; in [18], > 100 µM (inactive); in assay [5], > 100 µM (inactive). Also, the GI50 in assay [6], in assay [7], in assay [8], in [9], in assay [19] and in assay [10] was > 100 µM (inactive) in each case. Moreover, the GI50 in [11], in assay [12], in assay [13], in assay [14], in assay [15] and in [16] was > 100 µM (inactive) each time. In addition, in assay [17], the GI50 is > 100 µM (inactive).

With `CN1CCc2ccccc2C1Cc1ccccc1NC(=O)c1sc2ccccc2c1Cl` (stereo not drawn), the GI50 was > 100 µM (inactive) in [1]; > 100 µM (inactive) in assay [2]; > 100 µM (inactive) in [3]; above 100 µM in assay [4]; > 100 µM (inactive) in assay [18]; > 100 µM (inactive) in [5]. For the same compound, the GI50 in [7], in [8], in assay [9], in assay [19], in assay [10] and in [11] was > 100 µM (inactive) each time. Also, the GI50 in assay [12], in [13], in assay [14], in assay [15], in assay [16] and in assay [17] was > 100 µM (inactive) each time.

Take `C[C@H]1OC(=O)[C@@H]2N=NN(Cc3ccccc3)[C@H]12`: the GI50 in assay [1] is > 100 µM (inactive); in assay [2] it was > 100 µM (inactive); in [3] it was > 100 µM (inactive); in [4], above 100 µM; in assay [18], > 100 µM (inactive); in [5], > 100 µM (inactive). The GI50 in [6], in assay [7], in assay [8], in assay [9], in [10] and in assay [11] was > 100 µM (inactive) each time. The GI50 in assay [12], in [13], in [14], in [15], in assay [16] and in assay [17] was > 100 µM (inactive) in each case.

Consider `[N-]=[N+]=NC1=C(C(=O)c2ccccc2)C(=O)c2cccc3cccc1c23`, for which the GI50 in [1] is 37.7 µM (inactive); in assay [2], 40.6 µM (inactive); in assay [3], > 100 µM (inactive); in assay [18], 17.1 µM (inactive); in [5], 28.4 µM (inactive); in assay [6] it was 51.2 µM (inactive). Moreover, the GI50 is 25.1 µM (inactive) in assay [7]; 49.9 µM (inactive) in assay [8]; 51.5 µM (inactive) in assay [9]; 36.4 µM (inactive) in [19]; 51.3 µM (inactive) in assay [10]; 39.5 µM (inactive) in assay [11]. The GI50 is 37.2 µM (inactive) in assay [12]; 22.4 µM (inactive) in assay [13]; 17.1 µM (inactive) in assay [14]; 49.3 µM (inactive) in assay [15]; 21.8 µM (inactive) in assay [16]; > 100 µM (inactive) in assay [17].

(Values after ChEMBL document CHEMBL1201862, “PubChem BioAssay data set” (2004).)
